Key:
male Sprague-Dawley rats = assay: Functional Observational Battery (FOB), effects on CNS function (ITR study 15951); type: in vivo; conditions: rat
Method: The test and control/vehicle items were administered by single dose intranasal administration to both nostrils, as shown in Table 1.
Parameters monitored included mortality and clinical signs. General behavioral changes were assessed using FOB at 6 timepoints: before dosing, and at 15 minutes, 1, 2, 4, and 24 hours postdosing. On each occasion, the FOB was performed at 4 stages: when the animals were in their home cage, while handling the animals, when the animals were freely moving in an open-field, and when they received diverse stimuli for reactivity evaluation. The body temperature and neuromuscular strength were also measured on each of the occasions detailed above.

dogs = assay: Maximum tolerated dose followed by 7-day repeat-dose toxicology in dogs (Study 62958); type: in vivo; conditions: dog
Method: In support of these objectives, the study consisted of 2 individual phases.
The test item was administered once by intranasal instillation to one male and female dog for up to 5 dose levels until the highest tolerable dose (MTD) was determined as described in Table 5.
During Phase 2, assessments of mortality, clinical signs, body weights and food consumption were performed. […] Following the last dosing, all animals were euthanized and subjected to a necropsy examination on Day 8. The necropsy consisted of an external examination; including reference to all clinically-recorded lesions, as well as a detailed internal examination. Study plan specific tissues/organs were collected and preserved following necropsy but were not further examined microscopically.

[1] = Toxicokinetics in Study 62958 (plasma 5MeODMT, LC/MS/MS); type: in vivo; conditions: dog, daily intranasal instillation, 7-day treatment period
Sprague Dawley rats = assay: 14-day repeat-dose intranasal toxicity study with 14-day recovery in rats (Study 700041); type: in vivo, rat; conditions: for clinical signs: male and female; for microscopic changes in nasal cavities: male and/or female
Method: (§1) The animals were monitored for mortality, clinical signs, respiratory measurements, body weights, food consumption, and body temperature. Ophthalmoscopic examinations and respiratory function tests were performed on all animals at scheduled timepoints. Clinical pathology assessments (hematology, coagulation, clinical chemistry, and urinalysis) were evaluated at termination. […] Following dosing, the Main animals were euthanized and subjected to a complete necropsy examination on Day 15. […] TK animals were euthanized after the last blood collection and discarded without further examination. At terminal euthanasia, selected tissues/organs were weighed, and microscopic evaluations of a standard set of tissues including the nasal turbinates (4 sections) and brain (7 sections) were performed for all Main and Recovery study animals.
(§2) Following dosing, animals in the Main group were euthanized and subjected to a necropsy examination on Day 15.
Toxicity was based on the following parameters monitored: mortality/morbidity, clinical observations, body weights/gains, food consumption, ophthalmoscopy, clinical pathology (hematology, coagulation, chemistry, and urinalysis), necropsy observations, selected organ weights, and microscopic examination of a complete set of standard tissues including 4 cross levels of the nasal cavity and 7 sections of the brain.

[2] = Toxicokinetics in Study 700041; type: in vivo; conditions: rat, intranasal 20 mg/kg/day, Day 14, Male
Method: as §1, §2

Beagle dogs = assay: 14-day repeat-dose intranasal toxicity study with 14-day recovery in dogs (Study 62959); type: in vivo; conditions: dog; for animals with increased triglyceride level: vs control
Method: (§3) Assessments of mortality, clinical signs, olfactory reflex, body weights, food consumption, ophthalmology, and electrocardiograms were performed. In addition, clinical pathology assessments (hematology, coagulation, clinical chemistry and urinalysis) were evaluated once pretreatment and at termination. Blood samples were collected from the jugular vein of all animals on Days 1 and 14, at up to 8 time points relative to treatment, for analysis of test item concentration in plasma and the subsequent calculation of toxicokinetic parameters. Following dosing, the Main animals were euthanized and subjected to a complete necropsy examination on Day 15. […] All Main and Recovery study animals underwent complete necropsy examinations, selected tissues/organs were retained, and microscopic evaluations of a standard set of tissues were performed.

[3] = Toxicokinetics in Study 62959; type: in vivo; conditions: dog
Method: as §3
For toxicokinetics, a series of 8 blood samples were collected from the jugular vein from all treated animals on each of Days 1 and 14 of the treatment period at 2, 5, 10, 15, 30, and 60 minutes as well as 3 and 8 hours after treatment.

Dog = assay: Summary of clinical observations in applicant-sponsored dog toxicity studies; type: in vivo; conditions: Dog 1.0 mg/kg (33 mg HED), preliminary data, ongoing study
Description: Based on preliminary data from another ongoing study in dogs, it has been observed that the site of blood sampling in dogs may impact the measured plasma exposure. Samples from the jugular vein may result in higher apparent exposure levels than samples from the cephalic vein, which might be due to the local transmucosal route of administration (also reported in the scientific literature (Illum, 2003; Sohlberg, 2013)). Therefore, dose escalation criteria for the Phase 1 Single Ascending Dose study are based on assessment of clinical criteria, safety factors and exposure. A maximum dose of 14 mg has been designated.

[4] = single intranasal 1, 5, and 10 mg/kg, all dose levels
[5] = dose escalation phase, single intranasal 2-5 mg/kg
[6] = phase 2, MTD once daily 5 days then twice daily Days 6 and 7
[7] = rat, dose levels ≤75 mg/kg/day for 14 days
[8] = intranasal 0.8 mg/kg/day, Day 1, Female
[9] = intranasal 0.8 mg/kg/day, Day 1, Male
[10] = intranasal 0.8 mg/kg/day, Day 14, Female

COc1ccc2[nH]cc(CCN(C)C)c2c1 [BPL-5MEO, 5-methoxy-N,N-dimethyltryptamine]
clinical sign in one animal (male Sprague-Dawley rats; single intranasal 10 mg/kg): twitching | FOB autonomic domain (male Sprague-Dawley rats; [4]): salivation, piloerection, increased respiration, dilated pupils and changes in body temperature | FOB neurological (sensorimotor)/neuromuscular domain (male Sprague-Dawley rats; [4]): transient changes in gait (difficulty in movement) | FOB behavioral domain (male Sprague-Dawley rats; single intranasal 1.5, 3, 10 mg/kg, 15 minutes postdose): transient decreased activity, lying on the cage floor, and decreased rearing | clinical signs in some animals (male Sprague-Dawley rats; single intranasal 3 and 10 mg/kg): Tremors, salivation, and gasping | clinical signs immediately following dosing (male Sprague-Dawley rats; single intranasal, all dose groups): decreased activity, lying on the cage floor, shallow/increased respiration and dilated pupils | food intake (dogs; dose escalation phase, after Dose 1 and Dose 2): Slight decreases in food intake | clinical signs (dogs; [5]): gnawing cage wire, dilated pupils, changes in respiration, incoordination, decreased activity, vocalization, salivation, erect penis (for males) and shaking | mortality and bodyweights (dogs; [5]): no BPL-5MEO-related effects on mortality or bodyweights | duration of convulsion shortly after dosing (dogs; male animal, last escalating dose 3.5 mg/kg/day): 8 min | clinical signs (dogs; [6]): muscle stiffness, gnawing cage wire, dilated pupils, changes in respiration, decreased activity, incoordination, vocalization, salivation, erect penis (for the male) and shaking | mortality and bodyweights (dogs; [6]): no test item-related effects on mortality or bodyweights | accumulation [1]: did not accumulate | adverse effect on reproductive tissues (Sprague Dawley rats; 14-day pivotal GLP intranasal toxicity studies in rats and dogs): no evidence of an adverse effect on reproductive tissues | Thymus Mean Absolute Weight (Sprague Dawley rats; male rats, Group 2 (5 mg/kg/day), compared to the control value): −4 percentage | respiratory rate (Sprague Dawley rats; rat, 20 minutes postdose, vs pretreatment or control): decreases in respiratory rates | body temperature (Sprague Dawley rats; rat, Day 14, 15 and 30 minutes postdose, all treated male animals): slight body temperature increases | clinical signs (Sprague Dawley rats; rat, Group 2 (Low Dose) 5 mg/kg/day): incoordination, shaking, salivation, decreased activity, lying on cage floor and sensitive to touch | clinical signs (Sprague Dawley rats; rat, Group 3 (Mid Dose) 20 mg/kg/day): incoordination, shaking (or tremor), increased or shallow respiration, mydriasis, salivation, decreased activity, partially closed eyes, lying on cage floor and sensitive to touch | clinical signs (Sprague Dawley rats; rat, Group 4 (High Dose) 75 mg/kg/day): incoordination, shaking (or tremor), increased or shallow respiration, mydriasis, salivation, decreased activity, partially closed eyes, lying on cage floor and sensitive to touch | macroscopic findings (Sprague Dawley rats; rat, Main and Recovery groups): no macroscopic findings | microscopic findings in respiratory, transitional and/or olfactory epithelium of nasal cavities 1-4 (Sprague Dawley rats; rat, Main group): minimal to mild changes | microscopic changes in nasal cavities (Sprague Dawley rats; rat, Main group, 20 mg/kg/day (Group 3)): Minimal degeneration of the respiratory epithelium of the nasal cavities 1 and 2 | microscopic changes in nasal cavities (Sprague Dawley rats; rat, Main group, 5 and/or 20 mg/kg/day (Group 2 and 3)): Minimal degeneration of the olfactory epithelium of the nasal cavities 2 and 3 | reversibility of nasal microscopic changes (Sprague Dawley rats; rat, Recovery group, 14-day recovery period): incomplete but progressive ongoing reversal of epithelial degeneration | body weight gain (Sprague Dawley rats; rat, both sexes, Days 1 to 14): Slight, generally dose-dependent body weight gain suppression | activated partial thromboplastin times (APTT) (Sprague Dawley rats; rat, both sexes, mid (20 mg/kg/day) and high (75 mg/kg/day) dose groups, vs control): increased | clinical chemistry and urinalysis (Sprague Dawley rats; [7]): no changes in clinical chemistry and urinalysis parameters | food consumption (Sprague Dawley rats; [7]): no changes in food consumption | ocular effect (Sprague Dawley rats; [7]): no adverse ocular effect | mortality (Sprague Dawley rats; rat, intranasal 5, 20, 75 mg/kg/day, 14 days): No mortality | tolerability (Sprague Dawley rats; rat, intranasal, dose levels ≤75 mg/kg/day for 14 consecutive days): tolerated | platelet, neutrophil, monocyte and basophil counts (Sprague Dawley rats; rat, mid and high dose groups, both sexes, vs control): slightly increased | t1/2 [2]: 8.58 min | body temperature (Beagle dogs; Day 14, high dose group, both sexes, 15 and 30 minutes postdose): Transient body temperature increases | Triglyceride, Mean ± SD Day 14 (Beagle dogs; Group 2, 0.4 mg/kg/day, Females): 0.46 ± 0.61 mmol/L | Triglyceride, Mean ± SD Day 14 (Beagle dogs; Group 2, 0.4 mg/kg/day, Males): 0.40 ± 0.11 mmol/L | Triglyceride, Mean ± SD Day 14 (Beagle dogs; Group 3, 0.8 mg/kg/day, Females): 0.47 ± 0.22 mmol/L | Triglyceride, Mean ± SD Day 14 (Beagle dogs; Group 3, 0.8 mg/kg/day, Males): 0.44 ± 0.07 mmol/L | animals with increased triglyceride level (Beagle dogs; Group 3 female): 1/3 | animals with increased triglyceride level (Beagle dogs; Group 4 females): 4/5 | animals with increased triglyceride level (Beagle dogs; Group 4 male): 1/5 | additional clinical observations (Beagle dogs; Mid and High dose groups): eye discharge and shaking | time to resolution of clinical signs (Beagle dogs; all treated groups): ≤ 90 min | transient clinical observation (Beagle dogs; all treated groups): incoordination, vocalization, mydriasis, decreased or increased activity, increased respiration, gnawing cage wire, excessive licking of nose or lips and circling | additional clinical observation (Beagle dogs; high dose male animals): Erect penis | AUC(0-inf) ([3]; Beagle, plasma, inhaled or intranasal, 1.5 mg/kg/day, combined for both sexes, read-out: AUCINF_obs corresponding to NOAEL): 220 ng·h/mL | Cmax ([3]; intranasal 0.4 mg/kg/day, Day 1, Male): 343 ng/mL | t1/2 ([3]; intranasal 0.4 mg/kg/day, Day 14, Female): 42.4 min | Tmax ([3]; intranasal 0.4 mg/kg/day, Day 14, Male): 6.66 min | AUCINF—obs [3, 8]: 265 ng·h/mL | t1/2 [3, 8]: 43.8 min | AUCINF—obs [3, 9]: 160 ng·h/mL | Tmax [3, 9]: 6.66 min | AUC0-Tlast [3, 10]: 248 ng·h/mL | Cmax [3, 10]: 244 ng/mL | Tmax ([3]; intranasal 0.8 mg/kg/day, Day 14, Male): 6.66 min | Tmax ([3]; intranasal 2.5 & […], Day 1, Female): 6.66 min | t1/2 ([3]; intranasal 2.5 & […], Day 14, Male): 49 min | Clinical observation (Dog): Slight tremor

— US20230382858A1 (Beckley Psytech Limited, priority 2020, published 2023)
